Source: US7151105B2, “Inhibitors of Hepatitis C virus RNA-dependent RNA polymerase, and compositions and treatments using the same” (Agouron Pharmaceuticals, Inc., priority 2004, dated 2006)

Biological target: T1, Recombinant HCV polymerase (Hepatitis C virus genotype 1b, UniProt P26663)
T1 construct: Recombinant HCV polymerase was tested for its ability to perform primer/template-directed transcription
Experiment: biochemical
Settings: inhibition of polymerase-directed transcription; 30 min at 30° C; 30 nM enzyme; cpm data in triplicate
Method in brief: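 Primer/template-directed RNA synthesis by 2.5 pmol HCV polymerase on poly(rC)300/biotin-dG12 with 1 μM GTP plus α-32P-GTP, in pH 7.2 Tris buffer with 10 mM MgCl2, for 30 min at 30 °C. Products were filter-captured and counted, with 1% DMSO final. IC50 was fitted from triplicate cpm; percent inhibition was reported where IC50 was impractical.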

T1 sequence (P26663 2420-3010): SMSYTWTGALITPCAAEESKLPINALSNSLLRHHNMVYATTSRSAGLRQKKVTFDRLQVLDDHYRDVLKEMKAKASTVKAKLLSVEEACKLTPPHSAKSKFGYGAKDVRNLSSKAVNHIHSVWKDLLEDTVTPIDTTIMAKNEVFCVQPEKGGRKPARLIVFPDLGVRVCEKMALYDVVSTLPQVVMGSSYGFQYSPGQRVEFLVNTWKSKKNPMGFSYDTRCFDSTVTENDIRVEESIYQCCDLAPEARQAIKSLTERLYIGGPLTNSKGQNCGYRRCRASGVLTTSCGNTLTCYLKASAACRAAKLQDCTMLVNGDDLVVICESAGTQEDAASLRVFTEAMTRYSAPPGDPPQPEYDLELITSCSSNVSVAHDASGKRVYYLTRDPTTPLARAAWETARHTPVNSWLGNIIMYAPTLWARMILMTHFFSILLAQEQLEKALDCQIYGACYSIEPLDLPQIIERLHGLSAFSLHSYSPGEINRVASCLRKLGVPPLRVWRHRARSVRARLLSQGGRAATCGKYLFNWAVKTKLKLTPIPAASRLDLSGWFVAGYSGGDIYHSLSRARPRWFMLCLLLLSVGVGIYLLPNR

Compound | IC50 [nM]
CCc1nn2c(=O)cc(CC3=C(O)CC(CCc4ccc(C(C)(C)C#N)c(F)c4)(C4CCCC4)OC3=O)nc2s1 (stereo not shown) [B(20), 2-[4-(2-{2-Cyclopentyl-5-[(2-ethyl-5-oxo-5H-[1,3,4]thiadiazolo[3,2-a]pyrimidin-7-yl)methyl]-4-hydroxy-6-oxo-3,6-dihydro-2H-pyran-2-yl}ethyl)-2-fluorophenyl]-2-methylpropanenitrile] | 5
COc1cc(OC)c(CCC2(C3CCCC3)CC(=O)C(Sc3nc(N)nc4nc[nH]c34)C(=O)O2)cc1Cl (stereo not shown) [B(21), 3-[(2-Amino-7H-purin-6-yl)thio]-6-[2-(5-chloro-2,4-dimethoxyphenyl)ethyl]-6-cyclopentyldihydro-2H-pyran-2,4(3H)-dione] | 178
Cc1nc(CC2=C(O)CC(CCc3ccc(C(C)(C)C#N)c(Cl)c3)(C3CCCC3)OC2=O)n(C)n1 (stereo not shown) [B(22), 2-[2-Chloro-4-(2-{2-cyclopentyl-5-[(1,3-dimethyl-1H-1,2,4-triazol-5-yl)methyl]-4-hydroxy-6-oxo-3,6-dihydro-2H-pyran-2-yl}ethyl)phenyl]-2-methylpropanenitrile] | 42
CCn1cc(CC2=C(O)CC(CCc3ccc(C(C)(C)C#N)c(Cl)c3)(C3CCCC3)OC2=O)cn1 (stereo not shown) [B(23), 2-[2-Chloro-4-(2-{2-cyclopentyl-5-[(1-ethyl-1H-pyrazol-4-yl)methyl]-4-hydroxy-6-oxo-3,6-dihydro-2H-pyran-2-yl}ethyl)phenyl]-2-methylpropanenitrile] | 140
Cn1cc(CC2=C(O)CC(CCc3ccc(C(C)(C)C#N)c(Cl)c3)(C3CCCC3)OC2=O)cn1 (stereo not shown) [B(24), 2-[2-Chloro-4-(2-{2-cyclopentyl-4-hydroxy-5-[(1-methyl-1H-pyrazol-4-yl)methyl]-6-oxo-3,6-dihydro-2H-pyran-2-yl}ethyl)phenyl]-2-methylpropanenitrile] | 100
Cc1nn(C)c(C)c1CC1=C(O)CC(CCc2ccc(C(C)(C)C#N)c(Cl)c2)(C2CCCC2)OC1=O (stereo not shown) [B(25), 2-[2-Chloro-4-(2-{2-cyclopentyl-4-hydroxy-6-oxo-5-[(1,3,5-trimethyl-1H-pyrazol-4-yl)methyl]-3,6-dihydro-2H-pyran-2-yl}ethyl)phenyl]-2-methylpropanenitrile] | 33
Cc1cc(C)n2nc(N(C)C3C(=O)CC(CCc4ccc(C(C)(C)C#N)c(Cl)c4)(C4CCCC4)OC3=O)nc2n1 (stereo not shown) [B(26), 2-[2-Chloro-4-(2-{2-cyclopentyl-5-[(5,7-dimethyl[1,2,4]triazolo[1,5-a]pyrimidin-2-yl)(methyl)amino]-4,6-dioxotetrahydro-2H-pyran-2-yl}ethyl)phenyl]-2-methylpropanenitrile] | 18000
Cc1cc(C)n2nc(OC3C(=O)CC(CCc4ccc(C(C)(C)C#N)c(Cl)c4)(C4CCCC4)OC3=O)nc2n1 (stereo not shown) [B(27), 2-[2-Chloro-4-(2-{2-cyclopentyl-5-[(5,7-dimethyl[1,2,4]triazolo[1,5-a]pyrimidin-2-yl)oxy]-4,6-dioxotetrahydro-2H-pyran-2-yl}ethyl)phenyl]-2-methylpropanenitrile] | 10000
CC(C)(C#N)c1ncc(CCC2(C3CCCC3)CC(=O)CC(=O)O2)cc1Cl (stereo not shown) [B(29), 2-{3-Chloro-5-[2-(2-cyclopentyl-4,6-dioxotetrahydro-2H-pyran-2-yl)ethyl]pyridin-2-yl}-2-methylpropanenitrile] | 5200
Cc1cc(C)n2nc(CC3=C(O)CC(CCn4cc(Br)ccc4=O)(C4CCCC4)OC3=O)nc2n1 (stereo not shown) [B(30), 5-Bromo-1-(2-{2-cyclopentyl-5-[(5,7-dimethyl[1,2,4]triazolo[1,5-a]pyrimidin-2-yl)methyl]-4-hydroxy-6-oxo-3,6-dihydro-2H-pyran-2-yl}ethyl)pyridin-2(1H)-one] | 1200
CCc1ccc(=O)n(CCC2(C3CCCC3)CC(O)=C(Cc3nc4nc(C)cc(C)n4n3)C(=O)O2)c1 (stereo not shown) [B(31), 1-(2-{2-Cyclopentyl-5-[(5,7-dimethyl[1,2,4]triazolo[1,5-a]pyrimidin-2-yl)methyl]-4-hydroxy-6-oxo-3,6-dihydro-2H-pyran-2-yl}ethyl)-5-ethylpyridin-2(1H)-one] | 180
Cc1cc(C)n2nc(CC3=C(O)CC(CCc4ccc(C(C)(C)O)c(C)c4)(C4CCCC4)OC3=O)nc2n1 (stereo not shown) [B(32), 6-Cyclopentyl-3-[(5,7-dimethyl[1,2,4]triazolo[1,5-a]pyrimidin-2-yl)methyl]-4-hydroxy-6-{2-[4-(1-hydroxy-1-methylethyl)-3-methylphenyl]ethyl}-5,6-dihydro-2H-pyran-2-one] | 91
CCc1cc(CCC2(C3CCCC3)CC(=O)CC(=O)O2)ccc1CO (stereo not shown) [B(34), 6-Cyclopentyl-6-{2-[3-ethyl-4-(hydroxymethyl)phenyl]ethyl}dihydro-2H-pyran-2,4(3H)-dione] | 1300

The next lines start with the values.

IC50 [nM] | Compound
10 | CC(C)(O)c1ccc(CCC2(C3CCCC3)CC(O)=C(Cc3nc4ncccn4n3)C(=O)O2)cc1Cl (stereo not shown) [B(35), 6-{2-[3-Chloro-4-(1-hydroxy-1-methylethyl)phenyl]ethyl}-6-cyclopentyl-4-hydroxy-3-([1,2,4]triazolo[1,5-a]pyrimidin-2-ylmethyl)-5,6-dihydro-2H-pyran-2-one]
19 | Cc1cnc2nc(CC3=C(O)CC(CCc4ccc(C(C)(C)O)c(Cl)c4)(C4CCCC4)OC3=O)nn2c1 (stereo not shown) [B(36), 6-{2-[3-Chloro-4-(1-hydroxy-1-methylethyl)phenyl]ethyl}-6-cyclopentyl-4-hydroxy-3-[(6-methyl[1,2,4]triazolo[1,5-a]pyrimidin-2-yl)methyl]-5,6-dihydro-2H-pyran-2-one]
22 | Cc1cc(C)n2nc(CC3=C(O)CC(CCc4ccc(C(C)(C)O)c(Cl)c4)(C4CCCC4)OC3=O)nc2n1 (stereo not shown) [B(37), 6-{2-[3-Chloro-4-(1-hydroxy-1-methylethyl)phenyl]ethyl}-6-cyclopentyl-3[(5,7-dimethyl[1,2,4]triazolo[1,5-a]pyrimidin-2-yl)methyl]-4-hydroxy-5,6-dihydro-2H-pyran-2-one]
67 | CC(C)(O)c1ccc(CCC2(C3CCCC3)CC(O)=C(Cc3nc4ncc(Cl)cn4n3)C(=O)O2)cc1Cl (stereo not shown) [B(38), 6-{2-[3-Chloro-4-(1-hydroxy-1-methylethyl)phenyl]ethyl}-3-[(6-chloro[1,2,4]triazolo[1,5-a]pyrimidin-2-yl)methyl]-6-cyclopentyl-4-hydroxy-5,6-dihydro-2H-pyran-2-one]
43 | CCn1nc(CC2=C(O)CC(CCc3ccc(C(C)(C)C#N)c(F)c3)(C3CCCC3)OC2=O)nc1C (stereo not shown) [Example B(50), 2-[4-(2-{2-Cyclopentyl-5-[(1-ethyl-5-methyl-1H-1,2,4-triazol-3-yl)methyl]-4-hydroxy-6-oxo-3,6dihydro-2H-pyran-2-yl}ethyl)-2-fluorophenyl]-2-methylpropanenitrile]
24 | CN(C)c1c(CC2=C(O)CC(CCc3ccc(C(C)(C)C#N)c(F)c3)(C3CCCC3)OC2=O)c(C(F)F)nn1C (stereo not shown) [Example B(51), 2-{4-[2-(2-Cyclopentyl-5-{[3-(difluoromethyl)-5-(dimethylamino)-1-methyl-1H-pyrazol-4-yl]methyl}-4-hydroxy-6-oxo-3,6-dihydro-2H-pyran-2-yl)ethyl]-2-fluorophenyl}-2-methylpropanenitrile]
